From patent publication US6720346B2, “Thiazole benzamide derivatives and pharmaceutical compositions for inhibiting cell proliferation” (Agouron Pharmaceuticals, Inc., priority 2001, dated 2004)
Structures can show the parent of a compound that is named as a salt.

Legend:
[1] = molecular target: T1, human CDK4/cyclin D3 (Homo sapiens, UniProt P11802); assay: Inhibition of CDK4/cyclin D retinoblastoma kinase activity (Ki; % inhibition); assay type: biochemical; conditions: for Ki: apparent Ki, CDK4/cyclin D3, Rb substrate
T1 construct: made in house; host or cells: insect cells co-infected with baculovirus vectors
Procedure: (§1) Cyclin-dependent kinase activity was measured by quantifying the enzyme-catalyzed, time-dependent incorporation of radioactive phosphate from [^32P]ATP or [^33P]ATP into a protein substrate. Unless noted otherwise, assays were performed in 96-well plates in a total volume of 50 μL, in the presence of 10 mM HEPES (N-[2-hydroxyethyl]piperazine-N′-[2-ethanesulfonic acid]) (pH 7.4), 10 mM MgCl2, 25 μM adenosine triphosphate (ATP), 1 mg/mL ovalbumin, 5 μg/mL leupeptin, 1 mM dithiothreitol, 10 mM β-glycerophosphate, 0.1 mM sodium vanadate, 1 mM sodium fluoride, 2.5 mM ethylene glycol-bis(β-aminoethyl ether)-N,N,N′N′-tetraacetic acid (EGTA), 2% (v/v) dimethylsulfoxide, and 0.03-0.4 μCi [^32/33P]ATP per reaction. Reactions were initiated with enzyme, incubated at 30° C., and terminated after 20 minutes by the addition of ethylenediaminetetraacetic acid (EDTA) to 250 mM. The phosphorylated substrate was then captured on a nitrocellulose or phosphocellulose membrane using a 96-well filtration manifold, and unincorporated radioactivity was removed by repeated washing with 0.85% phosphoric acid. Radioactivity was quantified by exposing the dried membranes to a phosphorimager.
(§2) Compounds from combinatorial libraries were screened from 96-well plates for % inhibition of CDK activity at 30 nM theoretical compound concentration. Inhibition was measured relative to control wells that contained all reaction components including 2% (v/v) DMSO but no compound, after subtraction of background radioactivity measured in the absence of enzyme. Apparent Ki values of discrete compounds were measured by assaying enzyme activity in the presence of different inhibitor compound concentrations and subtracting the background radioactivity measured in the absence of enzyme. The kinetic parameters (kcat, Km for ATP) were measured for each enzyme under the usual assay conditions by determining the dependence of initial rates on ATP concentration. Inhibition data were fit to an equation for competitive inhibition using Kaleidagraph (Synergy Software), or were fit to an equation for competitive tight-binding inhibition using the software KineTic (BioKin, Ltd.).
A complex of human CDK4 and genetically truncated (1-264) cyclin D3 was purified using traditional biochemical chromatographic techniques from insect cells that had been co-infected with the corresponding baculovirus expression vectors (see e.g., Meijer and Kim, “Chemical Inhibitors of Cyclin-Dependent Kinases,” Methods in Enzymol., 283 (1997), pp. 113-128.). The enzyme complex (5 nM) was assayed with 0.3-0.5 μg of purified recombinant retinoblastoma protein fragment (Rb) as a substrate. The engineered Rb fragment (residues 386-928 of the native retinoblastoma protein; 62.3 kDa) contains the majority of the phosphorylation sites found in the native 106-kDa protein, as well as a tag of six histidine residues for ease of purification. Phosphorylated Rb substrate was captured by microfiltration on a nitrocellulose membrane and quantified using a phosphorimager as described above. For measurement of tight-binding inhibitors, the assay duration was extended to 60 minutes, during which the time-dependence of product formation was linear and initial rate conditions were met.

[2] = tested on: HCT-116 cell line; assay: Inhibition of cell growth, MTT tetrazolium salt assay; assay type: cell-based; conditions: for IC50: Homo sapiens, HCT-116, 120 h, MTT, three to five days
Procedure: Inhibition of cell growth was measured using the tetrazolium salt assay, which is based on the ability of viable cells to reduce 3-(4,5-dimethylthiazol-2-yl)-2,5-[2H]-diphenyltetrazolium bromide (MTT) to formazan (Mossman, Journal of Immunological Methods, 65, (1983), pp. 55-58). The water-insoluble purple formazan product was then detected spectrophotometrically. The HCT-116 cell line was used as a representative cancer cell line and grown in 96-well plates. Cells were plated in McCoy's 5A Medium at a volume of 135 μl/well. Plates were incubated for four hours before addition of inhibitor compounds. Different concentrations of inhibitor compounds were added in 0.5% (v/v) dimethylsulfoxide (15 μL/well), and cells were incubated at 37° C. (5% CO2) for three to five days. At the end of the incubation, MTT was added to a final concentration of 0.2 mg/mL, and cells were incubated for 4 hours more at 37° C. After centrifugation of the plates and removal of medium, the absorbance of the formazan (solubilized in dimethylsulfoxide) was measured at 540 nm. The concentration of inhibitor compound causing 50% (IC50) or 90% ([…]) inhibition of growth was determined from the linear portion of a semi-log plot of inhibitor concentration versus percent inhibition. All results were compared to control cells treated only with 0.5% (v/v) dimethylsulfoxide.

[3] = molecular target: T2, CDK2/cyclin A (Homo sapiens, UniProt P24941); assay: Inhibition of CDK2/cyclin A retinoblastoma kinase activity (Ki; % inhibition); assay type: biochemical; conditions: for Ki: apparent Ki, CDK2/cyclin A, Rb substrate
T2 construct: made in house; host or cells: CDK2: insect cells (baculovirus); cyclin A: E. coli
Procedure: as §1, §2
CDK2 was purified using published methodology (Rosenblatt et al., “Purification and Crystallization of Human Cyclin-dependent Kinase 2,” J. Mol. Biol., 230, 1993, pp. 1317-1319) from insect cells that had been infected with a baculovirus expression vector. […] A complex of CDK2 and proteolyzed cyclin A was prepared and purified by gel filtration. The substrate for this assay was the same Rb substrate fragment used for the CDK4 assays, and the methodology of the CDK2/delta cyclin A and the CDK4/delta cyclin D3 assays was essentially the same, except that CDK2 was present at 10 nM or 19 nM. The duration of the assay was 60 or 75 minutes, during which the time-dependence of product formation was linear and initial rate conditions were met.

[4] = HCT-116 cells, 0.25 μM compound

T1 sequence (P11802 whole entry): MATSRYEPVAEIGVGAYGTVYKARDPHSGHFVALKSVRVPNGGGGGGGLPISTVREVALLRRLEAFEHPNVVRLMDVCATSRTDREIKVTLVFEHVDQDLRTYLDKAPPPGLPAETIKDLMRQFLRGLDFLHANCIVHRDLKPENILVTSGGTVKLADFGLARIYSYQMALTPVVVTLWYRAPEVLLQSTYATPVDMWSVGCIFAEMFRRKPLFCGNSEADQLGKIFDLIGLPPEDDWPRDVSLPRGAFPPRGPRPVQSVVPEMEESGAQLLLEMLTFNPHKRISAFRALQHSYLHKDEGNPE
T1 sequence (P30281 1-264 partner limits assumed): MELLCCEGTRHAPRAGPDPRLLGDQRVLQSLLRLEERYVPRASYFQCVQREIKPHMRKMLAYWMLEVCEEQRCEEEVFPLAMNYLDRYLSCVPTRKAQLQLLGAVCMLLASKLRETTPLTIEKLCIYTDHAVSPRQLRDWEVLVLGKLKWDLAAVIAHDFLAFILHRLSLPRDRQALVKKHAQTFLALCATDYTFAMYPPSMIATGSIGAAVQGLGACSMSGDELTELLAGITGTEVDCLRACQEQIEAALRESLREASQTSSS

SMILES	CDK4 % Inhibition at 0.03 μM ([1]; at 0.03 μM) [%]	HCT-116 % Inhibition at 0.25 μM ([2]; HCT-116, at 0.25 μM) [%]	CDK2 % Inhibition at 0.03 μM ([3]; at 0.03 μM) [%]	CDK4 % Inhibition at 0.03 μM ([1]; 0.03 μM compound) [%]	HCT-116 % Inhibition at 0.1 μM ([2]; HCT-116 cells, 0.1 μM compound) [%]	HCT-116 % Inhibition at 0.25 μM [2, 4] [%]	CDK2 % Inhibition at 0.03 μM ([3]; 0.03 μM compound) [%]	further results
N#Cc1cccc(NC(=O)c2ccc(Nc3nc(N)c(C(=O)c4c(F)cccc4F)s3)cc2)c1 [Example G60]	18	66	12	–	–	–	–	–
CN(C)c1ccc(NC(=O)c2ccc(Nc3nc(N)c(C(=O)c4c(F)cccc4F)s3)cc2)cc1 [Example A16, 4-[4-Amino-5-(2,6-difluoro-benzoyl)-thiazol-2-ylamino]-N-(4-dimethylamino-phenyl)-benzamide]	–	–	–	–	–	–	–	Ki [1]: 0.025 µM; IC50 [2]: 0.17 µM; Ki [3]: 0.068 µM
Nc1nc(Nc2ccc(C(=O)NC[C@@H]3CCCN3)cc2)sc1C(=O)c1c(F)cccc1F [Example A8, 4-[4-Amino-5-(2,6-difluoro-benzoyl)-thiazol-2-ylamino]-N-(pyrrolidin-2S-yl-methyl)-benzamide]	–	–	–	–	–	–	–	Ki [1]: 0.005 µM; IC50 [2]: 0.74 µM; Ki [3]: 0.054 µM
NC(=O)C1CCCN(C(=O)c2ccc(Nc3nc(N)c(C(=O)c4c(F)cccc4F)s3)cc2)C1 (stereo not shown) [Example G41]	10	50	11	–	–	–	–	–
Nc1nc(Nc2ccc(C(=O)Nc3ccc(CCO)cc3)cc2)sc1C(=O)c1c(F)cccc1F [Example A24, 4-[4-Amino-5-(2,6-difluoro-benzoyl)-thiazol-2-ylamino]-N-[4-(2-hydroxy-ethyl)-phenyl]-benzamide]	–	–	–	–	–	–	–	Ki [1]: 0.094 µM; IC50 [2]: 0.16 µM; Ki [3]: 0.1 µM
Cc1cc(NC(=O)c2ccc(Nc3nc(N)c(C(=O)c4c(F)cccc4F)s3)cc2)ccc1F [Example G330]	–	–	–	12	2	55	−1	–
Nc1nc(Nc2ccc(C(=O)N[C@@H]3CCc4ccccc43)cc2)sc1C(=O)c1c(F)cccc1F [Example G176]	21	62	22	–	–	–	–	HCT-116 % Inhibition at 0.1 μM ([2]; HCT-116, at 0.1 μM): 32%
Nc1nc(Nc2ccc(C(=O)NCCO)cc2)sc1C(=O)c1c(F)cccc1F [Example G326]	–	–	–	22	11	13	12	–
C[C@H](CN(C)C)NC(=O)c1ccc(Nc2nc(N)c(C(=O)c3c(F)cccc3F)s2)cc1 [Example A40, 4-[4-Amino-5-(2,6-difluoro-benzoyl)-thiazol-2-ylamino]-N-(2-dimethylamino-1R-methyl-ethyl)-benzamide Dihydrochloride]	–	–	–	–	–	–	–	Ki [1]: 0.009 µM; IC50 [2]: 0.04 µM; Ki [3]: 0.094 µM
CCN(CC)CCCN(C)C(=O)c1ccc(Nc2nc(N)c(C(=O)c3c(F)cccc3F)s2)cc1 [Example G260]	–	–	–	1	30	59	−27	–
CCC(C)CN(CCO)C(=O)c1ccc(Nc2nc(N)c(C(=O)c3c(F)cccc3F)s2)cc1 (stereo not shown) [Example G299]	–	–	–	−7	10	49	−11	–
COc1ccc(NC(=O)c2ccc(Nc3nc(N)c(C(=O)c4c(F)cccc4F)s3)cc2)cc1O [Example G14]	26	50	9	–	–	–	–	–
CCC(COC)NC(=O)c1ccc(Nc2nc(N)c(C(=O)c3c(F)cccc3F)s2)cc1 (stereo not shown) [Example G159]	5	74	6	–	–	–	–	HCT-116 % Inhibition at 0.1 μM ([2]; HCT-116, at 0.1 μM): 0%
COc1ccccc1NC(=O)c1ccc(Nc2nc(N)c(C(=O)c3c(F)cccc3F)s2)cc1 [Example G23]	7	63	8	–	–	–	–	–
Cc1ccc([C@H](C)NC(=O)c2ccc(Nc3nc(N)c(C(=O)c4c(F)cccc4F)s3)cc2)cc1 [Example G245]	–	–	–	34	18	55	36	–
CC(C)(C)c1ccc(CNC(=O)c2ccc(Nc3nc(N)c(C(=O)c4c(F)cccc4F)s3)cc2)cc1 [Example G270]	–	–	–	17	15	45	26	–
Nc1nc(Nc2ccc(C(=O)Nc3cccc(F)c3)cc2)sc1C(=O)c1c(F)cccc1F [Example G289]	–	–	–	9	7	62	−6	–
Cc1cccc(Cl)c1NC(=O)c1ccc(Nc2nc(N)c(C(=O)c3c(F)cccc3F)s2)cc1 [Example G15]	4	46	−12	–	–	–	–	–
Nc1nc(Nc2ccc(C(=O)NCCNc3ccccc3)c(O)c2)sc1C(=O)c1c(F)cccc1F [Example D1, 4-[4-Amino-5-(2,6-difluoro-benzoyl)-thiazol-2-ylamino]-2-hydroxy-N-(2-phenylamino-ethyl)-benzamide]	–	–	–	–	–	–	–	Ki [1]: 0.017 µM; IC50 [2]: 1 µM; Ki [3]: 0.0094 µM
Nc1nc(Nc2ccc(C(=O)Nc3ccc4[nH]ccc4c3)cc2)sc1C(=O)c1c(F)cccc1F [Example G227]	–	–	–	17	17	84	28	–
